According to ChEMBL document CHEMBL1201862, “PubChem BioAssay data set” (2004):
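Step 1: Grow cells in 96-well plates. Step 2: Expose to compound for 48 hours at 5 concentrations. Step 3: Interpolate endpoints linearly; if unreached, use highest concentration. The concentration for 50% growth inhibition is given as GI50.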 Active and inactive are the calls of the source. No stated cut-off is given here; in the data, active = GI50 up to about 1.1 µM and inactive = higher.

Key:
Assay in all cases: NCI-60 cell line screen, 48 h
IGROV-1 = system: IGROV-1
LOX IMVI = system: LOX IMVI
RXF 393 = system: RXF 393
SNB-19 = system: SNB-19
HL-60 = system: HL-60
KM12 = system: KM12
SK-MEL-28 = system: SK-MEL-28
SF-539 = system: SF-539
M14 = system: M14
A498 = system: A498
SR = system: SR
COLO 205 = system: COLO 205

Measured: GI50

O=C(NN1C(=O)C(Cl)C1c1ccc(O)cc1)c1ccccc1O (stereo not drawn)
inactive: IGROV-1 14 µM | LOX IMVI 16.7 µM | RXF 393 13.1 µM | SNB-19 23 µM | HL-60 25.2 µM | KM12 14 µM | SK-MEL-28 19.4 µM | SF-539 23.4 µM | M14 22.2 µM

O=C1C=C(O)c2nc(O)ccc2C1=O
inactive: A498 > 100 µM | IGROV-1 > 100 µM | LOX IMVI > 100 µM | RXF 393 > 100 µM | SNB-19 > 100 µM | HL-60 > 100 µM | SR > 100 µM | SK-MEL-28 > 100 µM | SF-539 > 100 µM | M14 > 100 µM | COLO 205 > 100 µM

Cc1cc(C)[n+]2c(c1)C=CC2.[O-][Cl+3]([O-])([O-])[O-]
inactive: LOX IMVI 17.1 µM | RXF 393 2.89 µM | SNB-19 42.7 µM | HL-60 2.94 µM | KM12 27.6 µM | SK-MEL-28 12.4 µM | SF-539 22.8 µM | M14 8.11 µM | COLO 205 15 µM

COc1ccc(CC#C/C=C/C(=O)NCC(C)C)cc1
inactive: IGROV-1 > 100 µM | LOX IMVI > 100 µM | RXF 393 40.3 µM | SNB-19 > 100 µM | HL-60 29.5 µM | SR 66.1 µM | KM12 > 100 µM | SK-MEL-28 > 100 µM | SF-539 > 100 µM | M14 > 100 µM | COLO 205 > 100 µM

CC(=O)NCc1c(C(N)=O)ncn1Cc1ccccc1
inactive: A498 > 100 µM | IGROV-1 > 100 µM | LOX IMVI > 100 µM | RXF 393 > 100 µM | SNB-19 > 100 µM | HL-60 > 100 µM | SK-MEL-28 > 100 µM | SF-539 > 100 µM | M14 > 100 µM | COLO 205 > 100 µM

O=C(OCc1nc2ccc(Br)cc2c(=O)n1-c1ccccc1)c1ccccc1O
inactive: A498 58.3 µM | IGROV-1 > 100 µM | LOX IMVI > 100 µM | RXF 393 > 100 µM | HL-60 36.7 µM | KM12 > 100 µM | SK-MEL-28 > 100 µM | SF-539 > 100 µM | M14 > 100 µM | COLO 205 > 100 µM

CC(=O)OC1COC(N2C(=O)C(=O)c3ccccc32)C(OC(C)=O)C1OC(C)=O (stereo not drawn)
inactive: A498 > 100 µM | IGROV-1 > 100 µM | LOX IMVI > 100 µM | RXF 393 > 100 µM | SNB-19 > 100 µM | SR > 100 µM | KM12 > 100 µM | SK-MEL-28 > 100 µM | SF-539 > 100 µM | M14 > 100 µM | COLO 205 > 100 µM

O/N=C1/C(=C/c2ccc(Oc3ccccc3)cc2)CCCC1C(NO)c1ccc(Oc2ccccc2)cc1 (stereo not drawn)
inactive: IGROV-1 29.1 µM | LOX IMVI 13.6 µM | RXF 393 14.5 µM | SNB-19 > 100 µM | HL-60 8.51 µM | KM12 22.3 µM | SK-MEL-28 61.2 µM | SF-539 40 µM | M14 40.6 µM | COLO 205 19.3 µM

CCS/C(=N\c1ccccc1)SC
inactive: IGROV-1 > 100 µM | LOX IMVI > 100 µM | RXF 393 > 100 µM | SNB-19 > 100 µM | HL-60 > 100 µM | KM12 > 100 µM | SK-MEL-28 > 100 µM | SF-539 > 100 µM | M14 > 100 µM | COLO 205 > 100 µM

CN(C)c1nc(N(C)C)sc(=O)n1
inactive: A498 > 100 µM | IGROV-1 > 100 µM | RXF 393 > 100 µM | SNB-19 > 100 µM | HL-60 > 100 µM | SR > 100 µM | KM12 > 100 µM | SK-MEL-28 > 100 µM | SF-539 > 100 µM | M14 > 100 µM

COc1ccc(C(c2c(O)c3ccccc3n(-c3ccccc3)c2=O)c2c(O)c3ccccc3n(-c3ccccc3)c2=O)cc1
inactive: LOX IMVI > 100 µM | RXF 393 > 100 µM | SNB-19 > 100 µM | SR 72.4 µM | KM12 > 100 µM | SK-MEL-28 > 100 µM | SF-539 > 100 µM | COLO 205 > 100 µM

O=C1c2ccccc2C(=O)N1C/C=N/NS(=O)(=O)c1ccc2ccccc2c1
inactive: A498 > 100 µM | IGROV-1 > 100 µM | SNB-19 > 100 µM | HL-60 > 100 µM | SR > 100 µM | KM12 > 100 µM | SF-539 > 100 µM | M14 > 100 µM | COLO 205 > 100 µM

O=c1c2ccccc2oc2nccnc12
inactive: A498 > 100 µM | IGROV-1 > 100 µM | LOX IMVI > 100 µM | RXF 393 > 100 µM | SNB-19 > 100 µM | KM12 > 100 µM | SK-MEL-28 > 100 µM | SF-539 > 100 µM | M14 > 100 µM | COLO 205 > 100 µM

C#C[C@@]1(O)CCCC2=CC(=O)C[C@]21C
inactive: IGROV-1 > 100 µM | RXF 393 > 100 µM | SNB-19 > 100 µM | HL-60 > 100 µM | SR > 100 µM | KM12 > 100 µM | SK-MEL-28 > 100 µM | SF-539 > 100 µM | M14 > 100 µM | COLO 205 > 100 µM

COc1cccc2ccc(C(=O)c3ccccc3)nc12
inactive: IGROV-1 > 100 µM | LOX IMVI > 100 µM | SR > 100 µM | KM12 > 100 µM | SK-MEL-28 88.9 µM | SF-539 > 100 µM | M14 > 100 µM | COLO 205 > 100 µM

COC(=O)N/N=C/c1oc(-c2ccccc2)c(-c2ccccc2)c1[N+](=O)[O-]
inactive: IGROV-1 > 100 µM | LOX IMVI > 100 µM | RXF 393 > 100 µM | SNB-19 > 100 µM | HL-60 > 100 µM | SR > 100 µM | KM12 > 100 µM | SK-MEL-28 > 100 µM | SF-539 > 100 µM | M14 > 100 µM | COLO 205 > 100 µM

C[N+](C)(C)CC1CCCCC1O (stereo not drawn)
inactive: A498 > 100 µM | IGROV-1 > 100 µM | LOX IMVI > 100 µM | RXF 393 > 100 µM | SR > 100 µM | SK-MEL-28 > 100 µM | SF-539 > 100 µM | M14 > 100 µM | COLO 205 > 100 µM

CCCC(C)NC1=C(NC(C)=O)C(=O)c2ccccc2C1=O (stereo not drawn)
inactive: IGROV-1 > 100 µM | LOX IMVI > 100 µM | RXF 393 > 100 µM | SNB-19 > 100 µM | HL-60 97.3 µM | SR > 100 µM | KM12 > 100 µM | SK-MEL-28 > 100 µM | SF-539 > 100 µM | M14 > 100 µM | COLO 205 > 100 µM

COC(=O)C[S+]([O-])c1ccccc1 (stereo not drawn)
inactive: A498 49.8 µM | IGROV-1 19.2 µM | LOX IMVI 21.8 µM | RXF 393 16.4 µM | SNB-19 37.8 µM | HL-60 15.5 µM | KM12 28.3 µM | SK-MEL-28 29.8 µM | SF-539 20.9 µM | M14 37.3 µM | COLO 205 34.3 µM
